Experiments:
Assay type in all cases: cell-based, mouse
BMMs [1] = experiment: RANKL-induced osteoclast differentiation, TRAP staining
Method: To evaluate the role of DZNep on osteoclastogenesis, BMMs were seeded into, in triplicate, a 96-well plate at the density of 8 × 10^3 cells/well with complete α-MEM for one day. Afterward, the culture medium was replaced by the complete α-MEM containing different concentrations of DZNep (control, 3.125, 6.25, 12.5, and 25 nM) and RANKL (50 ng/ml) to stimulate osteoclast differentiation. Cells untreated with DZNep were included as the control group. Moreover, the BMMs treated with or without DZNep for various days were also analyzed. For EZH2 gene knockdown studies, the cells were transfected with virus constructed of different EZH2 short hairpin RNA (shRNA) and negative control shRNA by mixed with polybrene (final concentration of 10ug/ml) for 48 h. The transfection mixture was then replaced by complete α-MEM added with puromycin for 24 h, and BMMs were then seeded into a 96-well plate at the density of 1 × 10^4 cells/well with complete α-MEM. The culture medium was then replaced every 2 days until the matured osteoclasts could be observed in the plate. For Foxc1 inhibition experiment, the cells were separately transfected with negative control siRNA, negative control siRNA with DZNep, and Foxc1 small interfering RNA (siRNA) with DZNep and by mixed with transfection reagent and osteoclast culture medium. The transfection mixture was then replaced every 2 days until the matured osteoclasts could be observed in the plate. The plate was then washed by PBS 1 times and fixed with 4% paraformaldehyde for 15 min. TRAP staining was performed immediately without light at 37 °C for 30 min. An optical microscope (Olympus, Tokyo, Japan) was used to image the photographs, and the TRAP-positive cells with more than three nuclei were considered osteoclasts and were quantified the area and number using the ImageJ software (NIH, Bethesda, MD, USA).

BMMs [2] = experiment: Bone resorption assay on hydroxyapatite-coated Osteo Assay plates; details: 25 nM, compared with the control group
Method: To explore the effect of DZNep on the function of osteoclast, BMMs on complete α-MEM were seeded at the density of 1 × 10^4 cells/well, in triplicate, on the Osteo Assay Surface plates (Corning, NY, USA). After thirty-six hours, the culture medium was replaced by complete α-MEM, with RANKL (50 ng/mL), and various doses of DZNep (control, 6.25, 12.5, and 25 nM). For EZH2 gene knockdown studies, the cells were transfected with virus constructed of different EZH2 short hairpin RNA (shRNA) and negative control shRNA by mixed with polybrene (final concentration of 10ug/ml) for 48 h. The transfection mixture was then replaced by complete α-MEM added with puromycin for 24 h, and the survived BMMs were seeded into a 96-well plate, in triplicate, at a density of 1 × 10^4 cells/well. The medium needs to be constantly replaced until the osteoclast had matured for 1 day. For Foxc1 inhibition experiment, the cells were separately transfected with negative control siRNA, negative control siRNA with DZNep, and Foxc1 small interfering RNA (siRNA) with DZNep and by mixed with transfection reagent and osteoclast culture medium. The transfection mixture was then replaced every 2 days until the osteoclast had been observed for 2 days. […] The total area of resorption was photographed and then calculated by ImageJ software (NIH, Bethesda, MD, USA).

[3] = system: Wnt signaling pathway-related and osteoblast-specified genes in BMSC; experiment: qPCR of Wnt and osteoblast genes in BMSC
Method: BMMs were cultured in 6-well plates at the density of 2 × 10^5 cells/well in α-MEM supplemented with M-CSF (30 ng/ml), RANKL (50 ng/ml). The cells were then treated with or without 25 nM DZNep for 0, 1, 3, 5 days, or with various concentrations of DZNEP (0, 6.25, 25 nM) for 5 days, or with negative control siRNA, negative control siRNA with DZNep, and Foxc1 small interfering RNA (siRNA) with DZNep for 5 days. Once the culture completed, the Axygen RNA Miniprep Kit (Axygen, Union City, CA, USA) was used to extract the total RNA. BMSC were seeded in a 6-well plate at a number of 4 × 10^5 cells/well and treated with 0, 25, 50, 100 nM of DZNep combined with osteoblast-cultured medium for 24 h, or with or without 100 nM DZNep combined with osteoblast-cultured medium for 0 and 7 days, or with negative control siRNA, negative control siRNA with DZNep, and Wnt4 small interfering RNA (siRNA) with DZNep combined with osteoblast-cultured medium for 7 days. Once the culture completed, the Axygen RNA Miniprep Kit (Axygen, Union City, CA, USA) was used to extract the total RNA. After reverse transcription to obtain cDNA from the RNA template by using the Prime Script RT reagent Kit was finished. The real-time PCR assay was subsequently performed by using the SYBR® Premix Ex Taq™ II on an ABI 7500 Sequencing Detection System (Applied Biosystems, Foster City, CA). Specifically, total volume of 10 μl liquid consisted by 5 μl of SYBR® Premix Ex Taq™ II, 1 μl of diluted cDNA, 0.4 μl of mixed forward and reverse primer, and 3.6 μl of ddH2O was added into each hole of 384 PCR plate. Conditions of the 40 cycles were: 95 °C for 5 s and 60 °C for 30 s. The melting curves and reverse transcription PCR (RT-PCR) were the methods to detect the specificity of amplification product. Each target’s quantity, run in triplicate, was normalized to Actin Beta (Actb). […]

[4] = RANKL, M-CSF, DZNep ≤25 nM, 5 days, vs control

For `Nc1nccc2c1ncn2C1C=C(CO)C(O)C1O` (stereo not shown) [DZNep, 3-Deazaneplanocin], the “number of osteoclasts, treatment at specific time points” value (BMMs [1]; 25 nM, day 3–5, vs control) was “increased the number of osteoclasts at the middle stage”, the “number of mature osteoclast nuclei” value (BMMs [1]; [4]) was “increased in a dose-dependent manner significantly” and the “number of mature osteoclasts” value (BMMs [1]; [4]) was “increased the number of mature osteoclasts in a DZNep dose-dependent manner”. The bone resorption area (BMMs [2]) was “more than 30%”, the “expression of Wnt4, Wnt1, Wnt6, Wnt10a (qPCR)” value ([3]; 0, 25, 50, 100 nM, 24 h) was “increased in a concentration-dependent manner” and the “expression of Wnt genes after osteoblast-cultured medium for 7 days” value ([3]; 100 nM, 7 days) was “obviously upregulated”. For the same compound, the “expression of osteoblast-specified genes Runx2, Ocn, Opn, Col1a1” value ([3]; BMSC, 100 nM 0 and 7 days, 0-100 nM 24 h) was “enhanced in a time-dependent and dose-dependent manner”.

Source: publication PMC8686256, “DZNep promotes mouse bone defect healing via enhancing both osteogenesis and osteoclastogenesis” (Stem Cell Research & Therapy, 2021)
